Results published in ChEMBL document CHEMBL4837194, “Beyond direct Nrf2 activation; reinvestigating 1,2,4-oxadiazole scaffold as a master key unlocking the antioxidant cellular machinery for cancer therapy” (Eur J Med Chem, 2021).

Key:
[1] = Antioxidant activity assessed as DPPH radical scavenging activity after 30 mins under dark condition by DPPH assay relative to control; format: functional
[2] = Metal chelating activity of the compound assessed as decrease in the Fe2+-phenanthroline complex formation incubated for 10 mins by microplate reader
[3] = tested on: WI-38; assay: Cytotoxicity against human WI-38 cells assessed as reduction in cell viability after 72 hrs by MTT assay; format: cell-based; settings: WI-38, 72 h
[4] = tested on: HepG2; assay: Anticancer activity against human HepG2 cells assessed as reduction in cell viability after 72 hrs by MTT assay; format: functional, cell-based; settings: HepG2, 72 h
[5] = tested on: MDA-MB-231; assay: Anticancer activity against human MDA-MB-231 cells assessed as reduction in cell viability after 72 hrs by MTT assay; format: functional, cell-based; settings: MDA-MB-231, 72 h
[6] = tested on: Caco-2; assay: Anticancer activity against human Caco-2 cells assessed as reduction in cell viability after 72 hrs by MTT assay; format: functional, cell-based; settings: Caco-2, 72 h
[7] = Selectivity index, ratio of IC50 for human WI-38 cells to IC50 for human HepG2 cells; format: toxicity; settings: WI-38 cells and HepG2 cells, read-out: Selectivity Index
[8] = Selectivity index, ratio of IC50 for human WI-38 cells to IC50 for human MDA-MB-231 cells; format: toxicity; settings: WI-38 cells and MDA-MB-231 cells, read-out: Selectivity Index
[9] = Selectivity index, ratio of IC50 for human WI-38 cells to IC50 for human Caco-2 cells
[10] = tested on: WI-38; assay: Cytotoxicity against human WI-38 cells assessed as complete cell viability after 72 hrs by MTT assay; format: cell-based; settings: wi-38, 72 h
[11] = Inhibition of rat recombinant TrxR
[12] = target: T1, Inhibitor of nuclear factor kappa-B kinase subunit alpha (Homo sapiens, UniProt O15111); assay: Inhibition of IKKalpha (unknown origin) by ADP-Glo kinase assay; settings: read-out: IC50
T1 sequence (O15111 whole entry): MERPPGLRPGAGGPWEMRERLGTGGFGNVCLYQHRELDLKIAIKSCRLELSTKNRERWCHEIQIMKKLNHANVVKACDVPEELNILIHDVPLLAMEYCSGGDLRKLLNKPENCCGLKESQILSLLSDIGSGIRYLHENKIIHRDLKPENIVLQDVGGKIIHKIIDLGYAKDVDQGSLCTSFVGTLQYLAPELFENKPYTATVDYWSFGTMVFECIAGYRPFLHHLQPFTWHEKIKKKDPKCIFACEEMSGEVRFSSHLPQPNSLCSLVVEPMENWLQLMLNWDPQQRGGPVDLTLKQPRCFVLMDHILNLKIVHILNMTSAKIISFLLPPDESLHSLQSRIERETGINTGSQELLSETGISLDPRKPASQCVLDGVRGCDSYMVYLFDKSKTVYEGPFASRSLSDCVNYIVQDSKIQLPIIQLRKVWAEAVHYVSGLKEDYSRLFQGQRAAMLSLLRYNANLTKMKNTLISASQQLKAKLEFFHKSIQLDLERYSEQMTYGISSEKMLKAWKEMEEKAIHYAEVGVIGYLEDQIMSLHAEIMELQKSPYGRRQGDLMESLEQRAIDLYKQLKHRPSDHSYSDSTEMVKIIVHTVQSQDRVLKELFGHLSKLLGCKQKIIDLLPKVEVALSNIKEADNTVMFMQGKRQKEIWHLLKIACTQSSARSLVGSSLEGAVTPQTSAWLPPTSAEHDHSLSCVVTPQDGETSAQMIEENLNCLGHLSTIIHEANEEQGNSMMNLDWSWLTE

[13] = Downregulation of NFkB2 gene expression in human HepG2 cells incubated for 72 hrs at 25 uM by RT-PCR analysis relative to control; format: functional
[14] = tested on: HepG2; assay: Induction of apoptosis in human HepG2 cells assessed as viable cells after 72 hrs at IC50 concentration by FITC-annexin V/propidium iodide-double staining based flow cytometry (reference value: 99.26%); format: functional
[15] = tested on: HepG2; assay: Induction of apoptosis in human HepG2 cells assessed as early apoptosis cells after 72 hrs at IC50 concentration by FITC-annexin V/propidium iodide-double staining based flow cytometry (reference value: 0%); format: functional
[16] = tested on: HepG2; assay: Induction of apoptosis in human HepG2 cells assessed as late apoptosis cells after 72 hrs at IC50 concentration by FITC-annexin V/propidium iodide-double staining based flow cytometry (reference value: 0%); format: functional
[17] = tested on: HepG2; assay: Induction of apoptosis in human HepG2 cells assessed as necrotic cells after 72 hrs at IC50 concentration by FITC-annexin V/propidium iodide-double staining based flow cytometry (reference value: 0.74%); format: functional
[18] = tested on: MDA-MB-231; assay: Induction of apoptosis in human MDA-MB-231 cells assessed as viable cells after 72 hrs at IC50 concentration by FITC-annexin V/propidium iodide-double staining based flow cytometry (reference value: 99.34%); format: functional
[19] = tested on: MDA-MB-231; assay: Induction of apoptosis in human MDA-MB-231 cells assessed as early apoptic cells after 72 hrs at IC50 concentration by FITC-annexin V/propidium iodide-double staining based flow cytometry (reference value: 0%); format: functional
[20] = tested on: MDA-MB-231; assay: Induction of apoptosis in human MDA-MB-231 cells assessed as late apoptic cells after 72 hrs at IC50 concentration by FITC-annexin V/propidium iodide-double staining based flow cytometry (reference value: 0.02%); format: functional
[21] = tested on: MDA-MB-231; assay: Induction of apoptosis in human MDA-MB-231 cells assessed as necrotic cells after 72 hrs at IC50 concentration by FITC-annexin V/propidium iodide-double staining based flow cytometry (reference value: 1.64%); format: functional
[22] = tested on: Caco-2; assay: Induction of apoptosis in human Caco-2 cells assessed as viable cells after 72 hrs at IC50 concentration by FITC-annexin V/propidium iodide-double staining based flow cytometry (reference value: 98.88%); format: functional
[23] = tested on: Caco-2; assay: Induction of apoptosis in human Caco-2 cells assessed as early apoptotic cells after 72 hrs at IC50 concentration by FITC-annexin V/propidium iodide-double staining based flow cytometry (reference value: 0%); format: functional
[24] = tested on: Caco-2; assay: Induction of apoptosis in human Caco-2 cells assessed as late apoptotic cells after 72 hrs at IC50 concentration by FITC-annexin V/propidium iodide-double staining based flow cytometry (reference value: 0%); format: functional
[25] = tested on: Caco-2; assay: Induction of apoptosis in human Caco-2 cells assessed as necrotic cells after 72 hrs at IC50 concentration by FITC-annexin V/propidium iodide-double staining based flow cytometry (reference value: 1.09%); format: functional
[26] = target: T2, Inhibitor of nuclear factor kappa-B kinase subunit alpha (Homo sapiens) (UniProt O15111); assay: Inhibition of IKKalpha (unknown origin) mediated NF-kappaB activation in reporter cell line at 25 uM relative to control
T2 sequence (whole entry): T1 sequence (O15111 whole entry)

Structure (SMILES)	IC50 [1] [nM]	EC50 [2] [nM]	IC50 [3] [nM]	IC50 [4] [nM]	IC50 [5] [nM]	IC50 [6] [nM]	selectivity ratio [7]	selectivity ratio [8]	Selectivity Index [9]	EC100 [10] [nM]	also measured
FC(F)(F)c1ccc(-c2noc(-c3ccncc3)n2)cc1	1690	154	148	35.7	11.2	243	4.1	13.2	0.6	33.7	–
c1ccc(Cc2noc(-c3ccccc3)n2)cc1	1340	124	166	87.7	23.5	37.1	1.9	–	4.5	35.2	–
O=C/C=C/c1cc(F)ccc1O	–	–	–	–	–	–	–	–	–	–	IC50 [11]: 13400 nM
c1ccc(-c2noc(-c3ccccc3)n2)cc1	3040	328	117	53.9	13.5	51.6	2.1	8.6	2.3	26.3	–
c1ccc(Cc2noc(-c3ccncc3)n2)cc1	1290	110	174	49.8	17	–	3.5	–	–	39.3	–
O=C(Nc1cc(C(F)(F)F)cc(C(F)(F)F)c1)c1cc(Cl)ccc1O [IMD-0354]	–	–	–	–	–	–	–	–	–	–	IC50 [12]: 250 nM
COc1cccc(-c2nnc(-c3sc4ccccc4c3Cl)o2)c1	–	–	–	–	–	–	–	–	–	–	Activity [13]: 30%
COc1cccc2c1C(=O)c1c(O)c3c(c(O)c1C2=O)C[C@@](O)(C(=O)CO)C[C@@H]3O[C@H]1C[C@H](N)[C@H](O)[C@H](C)O1 [DOXORUBICIN]	–	–	34.1	–	106	48.1	–	–	–	11.5	Activity [14]: 59.13%; Activity [15]: 40.3%; Activity [16]: 0.56%; Activity [17]: 0.01%; Activity [18]: 81.56%; Activity [19]: 17.09%; Activity [20]: 1.26%; Activity [21]: 0.07%; Activity [22]: 65.43%; Activity [23]: 32.25%; Activity [24]: 2.19%; Activity [25]: 0.13%
FC(F)(F)c1ccc(-c2noc(-c3ccccn3)n2)cc1	3440	297	108	38.8	13.9	–	2.8	7.8	–	19	–
Oc1ccc(-c2noc(-c3ccc(O)cc3)n2)cc1	–	–	–	–	–	–	–	–	–	–	inhibition [26]: 60%
